According to patent publication US7947707B2, “Nitrogenated heterocyclic compound and pharmaceutical composition comprising the same” (Kissei Pharmaceutical Co., Ltd., priority 2005, dated 2011):

What was measured:
[1] = biological target: T1, xanthine oxidase (from buttermilk) (Bos taurus, UniProt P80457); assay: Xanthine oxidase inhibitory effect; assay type: biochemical; details: 100 μmol/L xanthine, 5 mU/mL enzyme; read-out: X.O. inhibition IC50
T1 construct: xanthine oxidase (from buttermilk; biozyme laboratories); purchased biozyme laboratories; host or cells: buttermilk (natural source)
T1 sequence (P80457 whole entry): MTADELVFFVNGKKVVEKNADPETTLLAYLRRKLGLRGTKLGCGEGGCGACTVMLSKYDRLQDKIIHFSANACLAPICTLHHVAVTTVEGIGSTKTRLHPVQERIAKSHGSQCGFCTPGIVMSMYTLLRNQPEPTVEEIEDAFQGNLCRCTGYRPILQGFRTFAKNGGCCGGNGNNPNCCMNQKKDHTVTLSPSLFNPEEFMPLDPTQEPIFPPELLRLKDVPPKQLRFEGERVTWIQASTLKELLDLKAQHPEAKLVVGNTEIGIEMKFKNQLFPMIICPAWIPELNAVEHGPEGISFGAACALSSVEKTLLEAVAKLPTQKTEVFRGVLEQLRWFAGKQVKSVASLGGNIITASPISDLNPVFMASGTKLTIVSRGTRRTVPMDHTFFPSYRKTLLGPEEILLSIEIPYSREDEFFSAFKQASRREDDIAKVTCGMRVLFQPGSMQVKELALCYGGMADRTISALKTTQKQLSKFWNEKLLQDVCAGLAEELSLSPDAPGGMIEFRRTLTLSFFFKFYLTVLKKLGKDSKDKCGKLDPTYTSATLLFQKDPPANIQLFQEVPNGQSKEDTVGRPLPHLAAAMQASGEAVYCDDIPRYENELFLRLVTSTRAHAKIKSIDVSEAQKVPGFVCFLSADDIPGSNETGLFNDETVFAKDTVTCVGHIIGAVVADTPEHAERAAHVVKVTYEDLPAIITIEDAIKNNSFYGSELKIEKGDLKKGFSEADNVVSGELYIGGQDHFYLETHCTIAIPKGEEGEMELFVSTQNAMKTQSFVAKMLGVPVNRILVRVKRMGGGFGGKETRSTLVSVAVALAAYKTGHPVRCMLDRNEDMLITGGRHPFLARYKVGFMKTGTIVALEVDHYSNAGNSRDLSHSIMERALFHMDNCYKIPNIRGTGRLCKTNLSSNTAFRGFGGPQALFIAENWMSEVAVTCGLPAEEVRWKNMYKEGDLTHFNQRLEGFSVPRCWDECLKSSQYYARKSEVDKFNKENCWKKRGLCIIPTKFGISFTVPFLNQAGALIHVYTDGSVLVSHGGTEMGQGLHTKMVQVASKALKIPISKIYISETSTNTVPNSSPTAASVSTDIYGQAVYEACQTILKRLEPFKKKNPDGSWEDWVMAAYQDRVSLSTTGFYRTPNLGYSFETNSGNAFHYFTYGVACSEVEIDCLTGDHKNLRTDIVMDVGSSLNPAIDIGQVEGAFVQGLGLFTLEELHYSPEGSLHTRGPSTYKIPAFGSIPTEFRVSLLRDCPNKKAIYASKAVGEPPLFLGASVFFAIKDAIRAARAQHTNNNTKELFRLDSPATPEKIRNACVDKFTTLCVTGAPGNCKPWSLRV
Experimental: Assay for inhibition of xanthine oxidase was performed in 100 μmol/L substrate concentration (final concentration), 5 mU/mL enzyme concentration (final concentration) and compounds of the present invention as test compounds which were prepared with xanthine oxidase (from buttermilk; biozyme laboratories), xanthine (Sigma) and phosphate-buffered saline (PBS). In addition, all test compounds were frozen for preservation in condition of 20 mmol/L DMSO solution and used for experiments after thawing at need. Method is following: after diluted solution of test compound was added to 90 μL of 11.1 mU/mL enzyme solution, the mixture was incubated for 10 minutes after mixing. To start reaction, 100 μL of 200 μmol/L substrate solution was added to there, 10 minutes later, the reaction was stopped by addition of 500 μL of 0.5 mol/L sulfuric acid, and then absorbance at […] was measured. Final concentration of test compound was a single concentration, 10 μmol/L in single well for initial screening and 6 concentrations, 10, 1 μmol/L, 100, 10, 1 nmol/L, 100 pmol/L in duplicate for assay to calculate 50% inhibitory concentration (IC50) which were used for assay. Percent inhibition was calculated according to the formula described below. Percent inhibition (%)=(A−B)/(A−C)×100
In formula, A means absorbance in wells without test compound, B means absorbance in wells with test compound, C means absorbance in blank wells.
IC50 value was calculated from percent inhibition in each concentration by nonlinear regression method.

[2] = biological target: T2, HEK293 cells forced to express URAT1 (Homo sapiens, UniProt Q96S37); assay: URAT1 inhibitory effect, [8-14C] uric acid uptake; assay type: cell-based; details: test compound 100 μmol/L, 20 μmol/L uric acid, 5 minutes uptake
T2 construct: host or cells: HEK293
T2 sequence (Q96S37 1-553): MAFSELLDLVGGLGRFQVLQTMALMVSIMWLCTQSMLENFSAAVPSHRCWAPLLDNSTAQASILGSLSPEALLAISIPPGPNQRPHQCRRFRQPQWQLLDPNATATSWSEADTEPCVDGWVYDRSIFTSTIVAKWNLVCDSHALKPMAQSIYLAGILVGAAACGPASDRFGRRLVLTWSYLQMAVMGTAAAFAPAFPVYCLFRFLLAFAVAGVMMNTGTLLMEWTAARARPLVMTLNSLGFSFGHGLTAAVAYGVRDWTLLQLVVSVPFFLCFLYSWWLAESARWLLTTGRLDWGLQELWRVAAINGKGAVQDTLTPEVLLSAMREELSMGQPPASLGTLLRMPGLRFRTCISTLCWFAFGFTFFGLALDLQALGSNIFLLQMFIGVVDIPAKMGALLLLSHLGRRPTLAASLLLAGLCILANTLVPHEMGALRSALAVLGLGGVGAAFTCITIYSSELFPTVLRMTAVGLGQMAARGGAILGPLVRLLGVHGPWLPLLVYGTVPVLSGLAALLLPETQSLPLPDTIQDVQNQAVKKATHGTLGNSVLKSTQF
Excerpt: DMEM containing 10% FBS (supplemented with 0.05% geneticin, Nissui Pharmaceutical Co., Ltd.), HEK293 cells forced to express URAT1 (HCS (Human cell Systems), (Fuji Biomedix)), HBSS as washing buffer and HBSS substituted with Na-gluconate (NaCl in HBSS was substituted with Na-gluconate) were used for assay. [8-^14C] uric acid (moravek) was used as an uric acid reagent and added to assay buffer at 20 μmol/L as a final concentration. Compounds of the present invention were used as a test compound, 20 mmol/L stock solution of each test compound (DMSO solution) was diluted appropriately, and then the diluted test compound solution was added to assay buffer at 100 μmol/L as a final concentration including 0.5% final concentration of DMSO.
To prepare assay plates, at first, cells on subculture petri dish were peeled off using treatment of 0.05% trypsin-EDTA solution, and then seeded on Biocoat Poly-D-Lysine Cellware 24 well plate (BECTON DICKINSON) at a density of 2×10^5 cells/well and cultured for 2 days.
For the uptake study, at first, culture medium was removed by aspiration and cells were washed twice with HBSS (37° C.), then the buffer was replaced with 1 mL of assay buffer (37° C.). Cells were pre-incubated for 10 minutes. And then, the buffer was removed by aspiration and 0.5 mL of radioisotope ligand solution incubated at 37° C. was added, then cells were incubated for 5 minutes. After uptake, radioisotope solution was removed by aspiration, and immediately cells were washed three times with ice-cold HBSS, followed by resolving by addition of 0.5 mL of 0.5 mol/L NaOH. Cell lysate solution was transferred to a vial or 24 well plate for Betaplate, and mixed with 0.5 mL of liquid scintillator (Optiphase ‘Super Mix’; Perkin Elmer). Radioisotope activity was measured (using Betaplate 1450). As mean count in control solution not including test compound was 100%, percent inhibition was calculated by determining percent decrease in mean count in solution including test compound from mean count in control solution.

[3] = test system: potassium oxonate induced hyperuricemia; assay: Blood hypouricemic effect, potassium oxonate induced hyperuricemia; assay type: in vivo; details: Rattus norvegicus, po, male SD rats, serum 2 hours after administration, read-out: Decrease (%) in UA concentration; for inhibition in vivo at 10 mg/kg: 10 mg/kg orally
Experimental: Effect of compound of the present invention as a test compound was studied on potassium oxonate induced hyperuricemia with male 7-week-old SD rats (Charles River Japan) and potassium oxonate (Aldrich) suspended in 1% gum arabic solution. Test compound was suspended in 0.5% CMC-Na solution, and then administered orally. Dosing was 10 mg/kg or 50 mg/kg. All volume of administered solution was 10 mL/kg. Potassium oxonate 250 mg/kg was administered to dorsal region of rats subcutaneously, 1 hour later each test compound was administered orally. For control group, only 0.5% CMC-Na solution as a vehicle was administrated. At 2 hours after administration of test compounds or vehicle, blood was collected under ether anesthesia, and serum was separated according to general method. Treated number was 5 for each group.
Measurement of concentration of uric acid was conducted with following prepared reagents. The deproteinization reagent was prepared in the following manner; 100 g of sodium tungstate was added to a 2 L flask, and exactly 75 mL of 85% phosphoric acid and 500 mL of water were added to the flask equipped with a reflux condenser, and heated for an hour. After cooling, the resulting faint yellow-green solution was diluted to 1 L exactly. Sodium carbonate-urea reagent was prepared in the following manner; 14 g of anhydrous sodium carbonate and 14 g of urea were dissolved in water and final volume of the solution was adjusted to 100 mL exactly. Phosphotungstic coloring reagent was prepared in 4-fold dilution of deproteinzation reagent described above with water. UA standard solution (10 mg/dL: Kyokuto pharmaceutical industrial CO., LTD) was used as an uric acid standard solution, and then serially diluted uric acid standard solution with purified water was also used for standard curve.
Three hundred μL of serum or standard was added to 2.1 mL of purified water, and then 150 μL of deproteination reagent was also added to the solution, followed by mixing. After incubating for 20 minutes, the mixture was centrifuged at 3000 rpm for 10 minutes. Sodium carbonate-urea reagent (0.5 mL) was added to 1.5 mL of supernatant, and the mixture was incubated for 20 minutes. Next, after addition of 250 μL of coloring reagent, further incubation was carried over 15 minutes. Absorbance at 660 nm was measured, and concentration of uric acid was calculated with standard curve. Percent decrease in concentration of uric acid was calculated by following formula. Percent decrease in concentration of uric acid (%)=(A−B)/A×100
In formula, A means average of concentration of blood uric acid in control group, B means average of concentration of blood uric acid in test compounds-treated group.

## Cc1ccsc1-c1cn(-c2ccc(C(=O)O)cc2)cc1C#N [XO-B407]
[1]
  IC50: 0.00473 µM
[2]
  inhibition at 100 µM: 55.5%
[3]
  inhibition in vivo at 10 mg/kg: 76.9%

## Cc1ccc2c(c1)c(C#N)cn2-c1ccc(C(=O)O)cc1 [XO-CH164]
[1]
  IC50: 0.0138 µM
[2]
  inhibition at 100 µM: 92.3%
[3]; 50 mg/kg orally
  inhibition in vivo at 50 mg/kg: 51.4%

## N#Cc1cn(-c2ccc(C(=O)O)cc2)cc1-c1ccc2c(c1)OCCO2 [XO-B434]
[1]
  IC50: 0.00382 µM
[2]
  inhibition at 100 µM: 68.8%
[3]
  inhibition in vivo at 10 mg/kg: 63.2%

## N#Cc1cn(-c2ccc(C(=O)O)cc2)cc1-c1ccsc1 [XO-B418]
[1]
  IC50: 0.00463 µM
[2]
  inhibition at 100 µM: 62.6%
[3]
  inhibition in vivo at 10 mg/kg: 79.1%

## N#Cc1cn(-c2ccc(C(=O)O)cc2)c2ccccc12 [XO-CH146]
[1]
  IC50: 0.0505 µM
[2]
  inhibition at 100 µM: 92.1%

## N#Cc1cn(-c2ccc(C(=O)O)cc2)c2cccc(Cl)c12 [XO-CH201]
[1]
  IC50: 0.0505 µM
[2]
  inhibition at 100 µM: 88.6%

## N#Cc1cn(-c2ccc(C(=O)O)cc2)nc1-c1cccs1 [XO-TT508]
[1]
  IC50: 0.00374 µM
[2]
  inhibition at 100 µM: 67.1%

## N#Cc1cn(-c2ccc(C(=O)O)cc2)c2ccc(Cl)cc12 [XO-CH160]
[1]
  IC50: 0.0267 µM
[2]
  inhibition at 100 µM: 93.8%

## N#Cc1cn(-c2ccc(C(=O)O)cc2)c2cc(Cl)ccc12 [XO-CH209]
[1]
  IC50: 0.0608 µM
[2]
  inhibition at 100 µM: 97.1%

## N#Cc1cn(-c2ccc(C(=O)O)cc2)c2ccc(F)cc12 [XO-CH168]
[1]
  IC50: 0.0571 µM
[2]
  inhibition at 100 µM: 92.5%

## N#Cc1cn(-c2ccc(C(=O)O)cc2)cc1-c1cccs1 [XO-B401]
[1]
  IC50: 0.00598 µM
[2]
  inhibition at 100 µM: 59.5%
[3]
  inhibition in vivo at 10 mg/kg: 78.8%

## N#Cc1cn(-c2ccc(C(=O)O)cc2)nc1-c1ccsc1 [XO-TT571]
[1]
  IC50: 0.00479 µM
[2]
  inhibition at 100 µM: 70.8%
[3]
  inhibition in vivo at 10 mg/kg: 62%

## COc1cccc2c1c(C#N)cn2-c1ccc(C(=O)O)cc1 [XO-CH211]
[1]
  IC50: 0.0164 µM
[2]
  inhibition at 100 µM: 81.1%

## N#Cc1cn(-c2ccc(C(=O)O)cc2)c2cc3c(cc12)OCO3 [XO-CH199]
[1]
  IC50: 0.0491 µM
[2]
  inhibition at 100 µM: 91.5%
